Results from patent US10774082B2, “Quinazoline compound” (Astellas Pharma Inc., priority 2017, dated 2020).

Test system: NCI-H1373 tumor
Test: Antitumor effect in NCI-H1373 tumor-bearing mouse
Type: in vivo
Conditions: 10 mg/kg orally once a day for 13 or 14 days
Protocol: Evaluation of Antitumor Effect in Human KRAS G12C Mutation Positive Non-Small Cell Lung Cancer Strain NCI-H1373 Tumor-Bearing Mouse
A cell suspension prepared per 3.0×10^7/mL by suspending NCI-H1373 cells in PBS, an equivalent amount of Matrigel (Becton, Dickinson and Company) was added thereto, and the cell suspension was subcutaneously planted in a volume of 100 μL to male nude mice of 4-5 weeks old (CAnN.Cg-Foxnlnu/CrlCrlj (nu/nu), Charles River Laboratories Japan, Inc.). Approximately 2 weeks after planting, groups were divided so that tumor volume and body weight between the groups were almost equivalent to each other, and administration of the test compound was started from the next day. The test was conducted with five mice in a solvent group and five mice in a test compound administration group, and an aqueous solution of 6% 2-hydroxypropyl-β-cyclodextrin (Sigma-Aldrich Co. LLC) was orally administered to the solvent group and an aqueous solution of 6% 2-hydroxypropyl-β-cyclodextrin which the test compound (10 or 40 mg/kg) was mixed was orally administered to the test compound administration group. The administration was performed once a day for 13 or 14 days, and tumor diameter and volume were measured twice a week. For calculation of tumor volume, the following formula was used. [tumor volume (mm^3)]=[major diameter (mm) of tumor]×[minor diameter (mm) of tumor]^2×0.5
The tumor growth inhibition rate (%) by the test compound was calculated by setting the tumor volume of the test compound administration group on the day before the administration started as 100% inhibition, and the tumor volume of the solvent group on the last day of administration as 0% inhibition. In addition, in a case where the tumor volume of the test compound administration group was lower than the tumor volume on the day before the administration started, the tumor regression rate (%) of the test compound was calculated by setting the tumor volume on the day before the administration started as 0% regression, and the tumor volume 0 as 100% regression.

SMILES	Antitumor effect: tumor regression rate
C=CC(=O)N1CC2(CCN(c3nc(OC4CCN(CCOC)CC4)nc4c(OCC(F)(F)F)c(-c5c(C)ccc6[nH]ncc56)c(C5CC5)cc34)CC2)C1 [Example 35]	72% regression
C=CC(=O)N1CC2(CCN(c3nc(OC4CCN(CCOCC)CC4)nc4c(OCC(F)(F)F)c(-c5c(C)ccc6[nH]ncc56)c(C=C)cc34)CC2)C1 [Example 37]	58% regression
C=CC(=O)N1CC2(CCN(c3nc(OC4CCN(CC(C)(C)O)CC4)nc4c(OCC(F)(F)F)c(-c5c(C)ccc6[nH]ncc56)c(C=C)cc34)CC2)C1 [Example 40]	15% regression
